Where two headings read alike, the source gives them in different places.
Assays:
[1] = target: T1, MEK1 (Homo sapiens, UniProt Q02750); experiment: MEK1 activation kinase assay (Assay 2, HTRF; Cot1 phosphorylates GST-MEK1); assay type: biochemical
T1 construct: purchased Millipore 14-420 (GST-MEK1); 14-703 (Cot1); host or cells: Cot1: insect cells (SF21)
Procedure: MEK1 Activation Kinase Assay
The kinase Cot1 activates MEK1 by phosphorylating its activation loop. The inhibitory activity of compounds of the present invention on this activation of MEK1 was quantified employing the HTRF assay described in the following paragraphs.
As substrate for the kinase reaction the unactive C-terminally His6-tagged GST-MEK1 fusion protein (Millipore cat. no 14-420) was used.
Then the kinase reaction was started by the addition of 2 μl of a solution of Cot1 in assay buffer and the resulting mixture was incubated for a reaction time of 20 min at 22° C. The concentration of Cot1 in the assay was adjusted depending of the activity of the enzyme lot and was chosen appropriate to have the assay in the linear range, typical enzyme concentrations were in the range of about 2 ng/μl (final conc. in the 5 μl assay volume).
The resulting mixture was incubated 2 h at 22° C. to allow the binding of the phosphorylated GST-MEK1 to the anti-GST-XL665 and the Eu-cryptate labelled anti-phospho-MEK 1/2 antibody. Subsequently the amount of Ser217/Ser221-phosphorylated substrate was evaluated by measurement of the resonance energy transfer from the Eu-Cryptate-labelled anti-phospho-MEK antibody to the anti-GST-XL665.

[2] = test system: colon cancer; conditions: oral treatment, mouse models, reference [18]; cited from earlier work
[3] = test system: MEK1/2; conditions: second-generation MEK1/2 inhibitor, reference [17]; cited from earlier work
[4] = mean values from 2 or more measurements, read-out: Assay 2 IC50 values (nanomolar) (MEK1 activation kinase assay) (values are mean values from 2 or more measurements)
[5] = representative example compounds, read-out: IC50 in MEK1 activation kinase assay

T1 sequence (Q02750 whole entry): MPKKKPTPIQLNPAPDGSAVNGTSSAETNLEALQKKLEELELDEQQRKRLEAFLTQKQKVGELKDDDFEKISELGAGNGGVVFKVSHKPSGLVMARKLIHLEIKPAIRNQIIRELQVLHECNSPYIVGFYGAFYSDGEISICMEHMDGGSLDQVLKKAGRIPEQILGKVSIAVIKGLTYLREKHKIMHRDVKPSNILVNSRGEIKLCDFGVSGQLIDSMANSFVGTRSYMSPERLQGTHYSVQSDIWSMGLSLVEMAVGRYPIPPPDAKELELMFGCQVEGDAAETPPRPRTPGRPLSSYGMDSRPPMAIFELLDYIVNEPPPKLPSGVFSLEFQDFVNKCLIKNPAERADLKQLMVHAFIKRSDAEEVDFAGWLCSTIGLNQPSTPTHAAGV

| SMILES | IC50 [1, 4] | IC50 [1, 5] | inhibition of colon cancer growth [2] | IC50 [3] |
| --- | --- | --- | --- | --- |
| C#Cc1ccc(Nc2cc(F)cc(Oc3cccc(NS(=O)(=O)NCCC)c3)c2C(N)=O)c(F)c1 [Example 7.3, 2-[3-[[(propylamino)sulfonyl]amino]phenoxy]-4-fluoro-6-[(4-ethynyl-2-fluorophenyl)amino]-benzamide] | 46.7 nM |  |  |  |
| C#Cc1ccc(Nc2c(F)c(F)c(F)c(Oc3cccc(NS(=O)(=O)N(C)C)c3)c2C(N)=O)c(F)c1 [Example 7.4, 2-{3-[(dimethylsulfamoyl)amino]phenoxy}-6-[(4-ethynyl-2-fluorophenyl)amino]-3,4,5-trifluorobenzamide] | 12.3 nM |  |  |  |
| O=C(NOCC1CC1)c1ccc(F)c(F)c1Nc1ccc(I)cc1Cl [PD184352] |  |  | inhibit colon cancer growth in vivo | low nanomolar range |

Further lines, with some results ahead:

| IC50 [1, 4] | IC50 [1, 5] | SMILES | inhibition of colon cancer growth [2] | IC50 [3] |
| --- | --- | --- | --- | --- |
| 49.1 nM | < 1000 nM | CN(C)S(=O)(=O)N(C)c1cccc(Oc2cc(F)cc(Nc3ccc(I)cc3F)c2C(N)=O)c1 [Example 10.6, 6-[3-[[(dimethylamino)sulfonyl](methyl)-amino]phenoxy]-4-fluoro-2-[(2-fluoro-4-iodophenyl)amino]-benzamide] |  |  |
| 33.2 nM | < 1000 nM | NC(=O)c1c(Nc2ccc(I)cc2F)cc(F)cc1Oc1cccc(C(=O)O)c1 [Example 10.7, 3-[2-Carbamoyl-5-fluoro-3-(2-fluoro-4-iodo-phenylamino)-phenoxy]-benzoic acid] |  |  |
| 29.4 nM | < 1000 nM | CS(=O)(=O)c1cccc(Oc2cc(F)cc(Nc3ccc(I)cc3F)c2C(N)=O)c1 [Example 10.8, 4-Fluoro-2-(2-fluoro-4-iodo-phenylamino)-6-(3-methanesulfonyl-phenoxy)-benzamide] |  |  |
